Calls of active or inactive are those of the source. The rule behind the calls is not given here.
Assays:
[1] = target: T1, Heparanase (Homo sapiens) (UniProt Q9Y251); experiment: Binding affinity to recombinant heparanase catalytic stie (unknown origin) expressed in Escherichia coli BL21 (DE3) by NMR analysis
T1 sequence (whole entry): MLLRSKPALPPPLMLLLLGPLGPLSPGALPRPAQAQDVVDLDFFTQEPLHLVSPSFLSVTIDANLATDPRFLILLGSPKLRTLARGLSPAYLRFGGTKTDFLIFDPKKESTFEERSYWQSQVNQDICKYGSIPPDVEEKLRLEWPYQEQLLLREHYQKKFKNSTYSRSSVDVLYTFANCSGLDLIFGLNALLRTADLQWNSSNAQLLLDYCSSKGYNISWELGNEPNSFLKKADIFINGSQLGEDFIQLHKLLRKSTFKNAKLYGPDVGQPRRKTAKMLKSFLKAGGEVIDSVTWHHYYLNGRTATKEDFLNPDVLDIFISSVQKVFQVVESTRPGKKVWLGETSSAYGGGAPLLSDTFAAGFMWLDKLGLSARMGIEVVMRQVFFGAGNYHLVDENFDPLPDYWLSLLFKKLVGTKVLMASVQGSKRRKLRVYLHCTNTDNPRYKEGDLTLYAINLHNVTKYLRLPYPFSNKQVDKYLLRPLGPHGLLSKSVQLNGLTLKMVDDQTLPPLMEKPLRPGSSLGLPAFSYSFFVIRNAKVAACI

Heparanase [2] = target: T2, Heparanase (Homo sapiens, UniProt Q9Y251); experiment: Binding affinity to recombinant heparanase catalytic stie (unknown origin) expressed in Escherichia coli BL21 (DE3) by surface plasmon resonance assay
T2 sequence (Q9Y251 whole entry): T1 sequence (whole entry)

Heparanase [3] = target: T2, Heparanase; experiment: Inhibition of recombinant heparanase catalytic stie (unknown origin) expressed in Escherichia coli BL21 (DE3)

| Compound | Activity [1] | Kd (Heparanase [2]) [µM] | IC50 (Heparanase [3]) [µM] |
| --- | --- | --- | --- |
| COc1cc(N)c(Cl)cc1C(=O)NC1CCN(CCCOc2ccc(F)cc2)CC1OC (stereo unspecified) [CISAPRIDE] | Active | > 1000 | – |
| O=C(CN1CCCCC1)Nc1cc(Nc2ccnc3cc(Cl)ccc23)cc(C(=O)N2CCOCC2)c1 | – | > 1000 | – |
| CN1C[C@H](CNC(=O)OCc2ccccc2)C[C@@H]2c3cccc4c3c(cn4C)C[C@H]21 [METERGOLINE] | Active | > 1000 | – |
| CCCCCCCCCCCCCCCC(=O)C1=C(OC)[C@@H](CO)OC1=O | – | – | > 100 |
| CCN(CC)Cc1cc(Nc2ccnc3cc(Cl)ccc23)ccc1Br | – | > 1000 | – |
| CCN(CC)Cc1cc(Nc2ccnc3cc(Cl)ccc23)ccc1O | Active | 52.6 | – |
| CN(C)CCNCc1cc(NC(=O)CN2CCCCC2)cc(Nc2ccnc3cc(Cl)ccc23)c1 | – | 639 | – |
| CCCCCCCCCCCCCCCC(=O)C1=C(O)[C@@H](CO)OC1=O | – | – | 17 |
| COc1ccc(CCN2CCC(Nc3nc4ccccc4n3Cc3ccc(F)cc3)CC2)cc1 [ASTEMIZOLE] | Active | > 1000 | – |
| CCOc1ccc(Nc2ccnc3cc(Cl)ccc23)cc1CN1CCCC1 | – | 169 | – |
| C[C@@H]1O[C@@H](O[C@H]2[C@H](Oc3cc(O)c4c(c3)O[C@H](c3ccc(O)cc3)CC4=O)O[C@H](CO)[C@@H](O)[C@@H]2O)[C@H](O)[C@H](O)[C@H]1O [NARINGIN] | Active | > 1000 | – |
| COc1ccc([C@@H]2CC(=O)c3c(O)cc(O[C@@H]4O[C@H](CO[C@@H]5O[C@@H](C)[C@H](O)[C@@H](O)[C@H]5O)[C@@H](O)[C@H](O)[C@H]4O)cc3O2)cc1O [HESPERIDIN] | Active | > 1000 | – |
| CC(CCc1ccccc1)NCC(O)c1ccc(O)c(C(N)=O)c1 (stereo unspecified) [LABETALOL] | Active | 1000 | – |
| CCN(CC)Cc1cc(Nc2ccnc3cc(Cl)ccc23)ccc1N1CCOCC1 | – | 239 | – |
| O=C(O)c1ccccc1C(=O)c1ccc(Oc2ccccc2)c([N+](=O)[O-])c1 | – | – | 1 |
| Clc1ccc2c(Nc3ccc(-c4ccco4)c(CN4CCCC4)c3)ccnc2c1 | – | > 1000 | – |
| CN(C)CCCNC(=O)c1cc(NC(=O)CN2CCCCC2)cc(Nc2ccnc3cc(Cl)ccc23)c1 | – | > 1000 | – |
| CCCCCCCCCCCCCCCc1cc(O[C@@H]2OC(C(=O)O)[C@H](O)[C@H](O)C2O)cc(O)c1C(=O)Oc1cc(C)c(C(=O)O)c(O)c1 (stereo partly specified) | – | – | 10 |
| O=C(CN1CCCCC1)Nc1cc(CN2CCC(O)CC2)cc(Nc2ccnc3cc(Cl)ccc23)c1 | – | 1000 | – |

Source: ChEMBL document CHEMBL2346546, “Hit identification of novel heparanase inhibitors by structure- and ligand-based approaches” (Bioorg Med Chem, 2013)
